# Measurements as given in patent US20110059956A1, “THERAPEUTIC AGENT FOR PAIN” (ZERIA PHARMACEUTICAL CO., LTD., priority 2008, published 2011).
# Where a name gives a salt, the structure may show the parent alone. Read-outs that look alike come from different tables or passages of the source.
# Legend:
# [1] = test system: nociceptive pain caused by thermal stimulation; conditions: cited from earlier work; for generation of morphine resistance: mouse, thermal stimulation, Non-Patent Documents 5 and 6
# [2] = test system: nociceptive pain triggered by formalin; conditions: cited from earlier work; for analgesic effect, sole use: Non-Patent Document 11
# [3] = test system: allodynia in B16-BL6 melanoma cancer pain model; test: cancer pain model (B16-BL6 melanoma transplanted into paw), von Frey pain threshold, single administration; assay type: in vivo, mouse; conditions: peroral single administration 100 mg/kg on day 14 after cancer transplantation; FIG. 1
# Source text: Then, the change in pain threshold was monitored. Compound (A1) was suspended in 0.5% CMC-Na solution before administration.
# [4] = test system: nociceptive pain caused by thermal stimulation; conditions: Non-Patent Document 7, cited from earlier work
# neuropathic pain = conditions: cited from earlier work
# [5] = test system: allodynia in B16-BL6 melanoma cancer pain model; test: cancer pain model (B16-BL6 melanoma), von Frey pain threshold, repeated administration; assay type: in vivo, mouse; conditions: 100 mg/kg orally once a day for eight days from day 7 after cancer transplantation; FIG. 2
# Procedure: From day 7 after cancer transplantation, compound (A1) or L-365,260 (CCK2 receptor antagonist) (100 mg/kg) was orally administered once a day for eight days repeatedly, and the change in pain threshold was monitored. […] On day 7 after cancer transplantation, allodynia occurred, and a considerable drop in pain threshold occurred on day 14 after cancer transplantation.
# pancreatic cancer = conditions: Non-Patent Document 15, cited from earlier work
# thermal hyperalgesia = conditions: Non-Patent Document 12; cited from earlier work
# cancer pain = conditions: clinical, combination with morphine; Non-Patent Document 10; cited from earlier work
structure (smiles),measurement,setting,value
C[C@](Cc1c[nH]c2ccccc12)(NC(=O)OC1[C@H]2C[C@@H]3C[C@@H](C[C@H]1C3)C2)C(=O)NC[C@H](NC(=O)CCC(=O)O)c1ccccc1 (stereo partly drawn) [CI-988],generation of morphine resistance,[1],suppress generation of morphine resistance
same,analgesic effect of morphine on nociceptive pain,"[2]; combination with morphine, Non-Patent Document 8",potentiates the analgesic effect of morphine
"Cc1cccc(NC(=O)N[C@@H]2N=C(c3ccccc3)c3ccccc3N(C)C2=O)c1 [L-365,260]",generation of morphine resistance,[1],suppress generation of morphine resistance
same,"analgesic effect, single use","[1]; single use, Non-Patent Document 13",exhibits no analgesic effect
same,change in pain threshold / improvement of allodynia,[3],no effect on improvement of allodynia
same,"analgesic effect, sole use",[2],exhibits the analgesic effect
same,analgesic effect of morphine on nociceptive pain,[4]; combination with morphine,potentiates the analgesic effect of morphine
same,"analgesic effect, single use",[4]; single use,exhibits no analgesic effect
same,analgesic effect of morphine on allodynia,"neuropathic pain; combination with morphine, Non-Patent Document 9",potentiates the analgesic effect of morphine
same,generation of morphine resistance,"neuropathic pain; rat neuropathic pain model, Non-Patent Document 4",suppress generation of morphine resistance
same,"analgesic effect, single use","neuropathic pain; single use, Non-Patent Document 9",exhibits no analgesic effect
same,change in pain threshold / improvement of allodynia,[5],no effect on improvement of allodynia was observed
Nc1ccn([C@@H]2O[C@H](CO)[C@@H](O)C2(F)F)c(=O)n1 [gemcitabine hydrochloride],pain relief effect,pancreatic cancer; pancreatic cancer patients,excellent pain relief effect
same,tumor regression effect,pancreatic cancer; pancreatic cancer,comparatively weak tumor regression effect
Cc1cccc(NC(=O)N[C@@H]2N=C(c3ccccc3)c3ccccc3N(CC(=O)c3ccccc3C)C2=O)c1 [YM022],"analgesic effect, sole use, on thermal hyperalgesia",thermal hyperalgesia,an analgesic effect
CCCN(CCC)C(=O)C(CCC(=O)O)NC(=O)c1ccccc1 (stereo not drawn) [proglumide],analgesic effect of morphine on cancer pain,cancer pain,potentiates the analgesic effect of morphine
same,change in pain threshold / improvement of allodynia,[3],no effect on improvement of allodynia
same,"analgesic effect, sole use",[2],exhibits the analgesic effect
